# Experimental data as given in patent US9518038B2, “Condensation product of theanine derivative and carboxylic acid coumarin derivative, its intermediate, preparation method and use thereof” (SHANDONG YINGDONG YINGHAO BIOTECHNOLOGY, INC., priority 2012, dated 2016).
# Like-named read-outs stand apart in the source and are kept apart here.
# Key:
# [1] = test system: human liver cancer cells HepG2; assay: MTT growth inhibition, HepG2 cells; format: cell-based; details: 72 h after treatment, read-out: Drug concentration (IC50) at which 50% cancer cells survived
# Excerpt: (§1) Cell lines and cell culture: human lung cancer cells A549 and H460, human breast cancer cells MCF-7 and MDA-MB-231, human gastric cancer cells BGC-823, human prostate cancer cells PC-3, human chronic leukemia cells K562, human lymphoma cells U937, human liver cancer cells SMMC7721 and HepG2, human colon cancer cells HT29, human pancreatic cancer cells PANC-1 and BxPC3, human cervical cancer Hela cell lines, human brain tumor cells Daoy, human neuroma cells D54 and human oral epidermoid cancer cells KBV200 line with strong drug resistance, mouse melanoma cells B16, and highly metastatic Lewis lung cancer cell lines were purchased from American Type Culture Collection of the U.S. These cells were cultured with DMEM and RPMI-1640 culture solutions separately.
# (§2) The procedure was as follows:
# (§3) (1) 0.25% trypsin was used to digest cancer cells in a logarithmic growth phase to prepare a single-cell suspension, the concentration of cells was adjusted to 5×10^4/mL, and the adjusted suspension was inoculated into a 96-well culture plate with 100 μl per well;
# (§4) (2) The culture plate was transferred into a 37° C. incubator with a saturated humidity and 5% of CO2 and cultured for 24 h; the compounds and the intermediates thereof obtained in embodiments 1-7 and the compound as represented by formula (IIIa) or the positive control anti-cancer drug with the concentration of 1-1000 μM/L were added to enable the final concentration to be 0.1-1500 μM/L. Control wells (only added with 200 μl of cell suspension) and drug-free blank control wells (containing the solvent of 0.01% DMSO) were set, each group included 8 wells, and the plate was placed into the 37° C. incubator with saturated humidity and 5% of CO2 for culturing;
# (§5) (3) The 96-well plate was taken out at 48 h and 72 h after dosing, the original culture medium was carefully removed by suction, 100 μl of serum-free DMEM culture medium and 10 μl of MTT (5 mg/mL) solution were added in each well. The plate was continuously cultured for another 4 h and then the culture was terminated;
# (§6) (4) The supernatant in the wells was carefully removed by suction, each well was added with 150 μl of DMSO and shaked at room temperature for 10-15 min to fully dissolve crystals.
# (§7) (5) Colorimetric analysis: the wavelength was selected as 570 nm, the light absorbance (A value) of each well was determined on the microplate reader and the results were recorded; the experiment was repeated for three times;
# (§8) (6) the experimental results were calculated according to the following formula: relative survival rate=(A value of each experimental group/A value of cell control group)×100%
# (§9) Calculation of median-effect concentration (IC50, namely the drug concentration at which the inhibition rate is 50%, also known as half inhibitory concentration):
# (§10) IC50 of the detected component was calculated by using a regression equation.
# [2] = test system: p53; assay: Western Blotting, increase of p53 level; format: cell-based; details: liver cancer cells, Lewis lung cancer cells and other cancer cell lines and tumor tissue protein lysates, 48 h treatment, read-out: Effective concentration to increase p53 by 50%
# Excerpt: (§11) Antibodies: primary antibodies of VEGFR, EGFR, c-Met, K-Ras, H-Ras, Akt, NF-κB, Cyclin D1, ER-alpha, Dvl-1, Dvl-2, Dvl-3, MMP-9, MMP2, β-catenin, Bcl-2, Bax, p53, p21, E-cadherin and Caspase3 protein, purchased from American Cell Signaling Technology Company and Santa Cruz Technology Company; and H3 acetylation, H4 acetylation and HDAC (HDAC3, HDAC4 and the like) Antibody Sample Kits, purchased from Cell Signaling Technology Company of the U.S.
# (§12) (3) polyacrylamide gel electrophoresis (SDS-PAGE): an equal amount of protein lysate sample was used to separate protein, film transfer, and blocking, treated with appropriate primary antibodies and secondary antibodies in sequence, and the film was washed, then the color was developed with ECL kit, and a blot protein band was detected by exposure of an X-ray film; and a Gel-Pro Analyzer was used for quantitative analysis of gray degree, optical density value of the control group and the drug treatment group in various concentration were respectively compared with that of internal reference, the obtained ratios were respectively compared with the control group, and the protein expression level was semi-quantified.
# [3] = test system: E-cadherin; assay: Western Blotting, increase of E-cadherin level; format: cell-based; details: liver cancer cells, Lewis lung cancer cells and other cancer cell lines and tumor tissue protein lysates, 48 h treatment, read-out: Effective concentration to increase E-cadherin by 50%
# Excerpt: as §11, §12
# [4] = test system: nucleoprotein factor NF-κB (p65)-DNA binding activity; assay: NF-κB (p65)-DNA binding activity (EMSA); format: cell-based; details: EMSA, nuclear protein extracts, 48 h, read-out: Effective concentration for 50% inhibition of binding of nucleoprotein factor NF-kB (p65) and DNA
# Excerpt: The in-vitro experiment of the inhibitory effect against the NF-κB(p65)-DNA binding activity was applied with the chemiluminescent EMSA kit of Pierce Biotechnology Company of the U.S., the experimental method was strictly operated according to the description of the kit and the specific procedure were as follows:
# (1) Preparation of EMSA gel
# The cells treated by the drugs were extracted by the nucleoprotein extract solution (provided by Beyotime Biotechnology of Institute) to obtain the nucleoprotein extracts, and 10 μg/pipe of the nucleoprotein extracts were respectively used for sample reaction and electrophoresis detection and analysis shown in the following table.
# (2) Pre-electrophoresis: the gel was fixed in an electrophoresis tank, which was filled with a 0.5×TBE electrophoresis buffer solution, and electrophoresed under 10V/cm for 90 min. The probe binding reaction was as follows:
# The components were added in sequence into the EP pipe according to the above table, uniformly mixed and stood at room temperature for 15 min to eliminate possible non-specific binding of probe and protein. 1 μl of biotin-labeled probe NF-κB was respectively added and stood at room temperature for 20 min.
# (4) Film transfer: the process of transferring the nucleoprotein factors and the binding probe on the EMSA gel to the nylon film was electrically transferred under 380 mA in ice bath for 40 min.
# (5) Ultraviolet cross-linking: the nylon film was placed under a 254 nm ultraviolet lamp and irradiated for 15 min.
# (6) Detection of the biotin-labeled probe by chemiluminescence: the cross-linked nylon film was blocked with the blocking solution, a treated film was subjected to X-ray exposure, developing, and fixation according to the requirements of the kit, and the results were analyzed.
# [5] = test system: human lung cancer cells A549; assay: MTT growth inhibition, A549 cells; format: cell-based; details: 72 h after treatment, read-out: Drug concentration (IC50) at which 50% cancer cells survived
# Excerpt: as §1, §2, §3, §4, §5, §6, §7, §8, §9, §10
# [6] = test system: human liver cancer cells SMMC7721; assay: MTT growth inhibition, SMMC7721 cells; format: cell-based; details: SMMC-7721, S-7721 (SMMC7721), 72 h after treatment, read-out: Drug concentration (IC50) at which 50% cancer cells survived
# Excerpt: as §1, §2, §3, §4, §5, §6, §7, §8, §9, §10
# [7] = test system: p21; assay: Western Blotting, increase of p21 level; format: cell-based; details: liver cancer cells, Lewis lung cancer cells and other cancer cell lines and tumor tissue protein lysates, 48 h treatment, read-out: Effective concentration to increase p21 by 50%
# Excerpt: as §11, §12
# [8] = test system: human breast cancer cells MDA-MB-231; assay: MTT growth inhibition, MDA-MB-231 cells; format: cell-based; details: 72 h after treatment, read-out: Drug concentration (IC50) at which 50% cancer cells survived
# Excerpt: as §1, §2, §3, §4, §5, §6, §7, §8, §9, §10
# [9] = test system: Caspase3; assay: Western Blotting, increase of Caspase3 level; format: cell-based; details: liver cancer cells, Lewis lung cancer cells and other cancer cell lines and tumor tissue protein lysates, 48 h treatment, read-out: Effective concentration to increase Caspase-3 by 50%
# Excerpt: as §11, §12
# [10] = test system: mouse melanoma cells B16; assay: MTT growth inhibition, B16 cells; format: cell-based; details: Mus musculus, 72 h after treatment, read-out: Drug concentration (IC50) at which 50% cancer cells survived
# Excerpt: as §1, §2, §3, §4, §5, §6, §7, §8, §9, §10
# [11] = test system: human chronic leukemia cells K562; assay: MTT growth inhibition, K562 cells; format: cell-based; details: 72 h after treatment, read-out: Drug concentration (IC50) at which 50% cancer cells survived
# Excerpt: as §1, §2, §3, §4, §5, §6, §7, §8, §9, §10
# [12] = test system: human lymphoma cells U937; assay: MTT growth inhibition, U937 cells; format: cell-based; details: Homo sapiens, U-937, 72 h after treatment, read-out: Drug concentration (IC50) at which 50% cancer cells survived
# Method: as §2, §5, §6, §7, §8, §10
# [13] = test system: human breast cancer cells MCF-7; assay: MTT growth inhibition, MCF-7 cells; format: cell-based; details: MCF7, 72 h after treatment, read-out: Drug concentration (IC50) at which 50% cancer cells survived
# Excerpt: as §1, §2, §3, §4, §5, §6, §7, §8, §9, §10
# [14] = test system: human pancreatic cancer cells BxPC3; assay: MTT growth inhibition, BxPc3 cells; format: cell-based; details: Homo sapiens, BXPC-3, 72 h after treatment, read-out: Drug concentration (IC50) at which 50% cancer cells survived
# Excerpt: as §1, §2, §3, §4, §5, §6, §7, §8, §9, §10
# [15] = test system: human gastric cancer cells BGC-823; assay: MTT growth inhibition, BGC-823 cells; format: cell-based; details: 72 h after treatment, read-out: Drug concentration (IC50) at which 50% cancer cells survived
# Excerpt: as §1, §2, §3, §4, §5, §6, §7, §8, §9, §10
# [16] = test system: human cervical cancer Hela cell lines; assay: MTT growth inhibition, Hela cells; format: cell-based; details: Homo sapiens, 72 h after treatment, read-out: Drug concentration (IC50) at which 50% cancer cells survived
# Excerpt: as §1, §2, §3, §4, §5, §6, §7, §8, §9, §10
# [17] = test system: human pancreatic cancer cells PANC-1; assay: MTT growth inhibition, PANC-1 cells; format: cell-based; details: 72 h after treatment, read-out: Drug concentration (IC50) at which 50% cancer cells survived
# Excerpt: as §1, §2, §3, §4, §5, §6, §7, §8, §9, §10
# [18] = test system: human lung cancer cells H460; assay: MTT growth inhibition, H460 cells; format: cell-based; details: NCI-H460, 72 h after treatment, read-out: Drug concentration (IC50) at which 50% cancer cells survived
# Excerpt: as §1, §2, §3, §4, §5, §6, §7, §8, §9, §10
# [19] = test system: human oral epidermoid cancer cells KBV200; assay: MTT growth inhibition, KBV200 cells; format: cell-based; details: 72 h after treatment, read-out: Drug concentration (IC50) at which 50% cancer cells survived
# Excerpt: as §1, §2, §3, §4, §5, §6, §7, §8, §9, §10
# [20] = test system: human brain tumor cells Daoy; assay: MTT growth inhibition, Daoy cells; format: cell-based; details: Homo sapiens, 72 h after treatment, read-out: Drug concentration (IC50) at which 50% cancer cells survived
# Excerpt: as §1, §2, §3, §4, §5, §6, §7, §8, §9, §10
# [21] = test system: human colon cancer cells HT29; assay: MTT growth inhibition, HT29 cells; format: cell-based; details: HT-29, 72 h after treatment, read-out: Drug concentration (IC50) at which 50% cancer cells survived
# Excerpt: as §1, §2, §3, §4, §5, §6, §7, §8, §9, §10
# [22] = test system: Caski human cervical cancer cells; assay: MTT growth inhibition, Caski cells; format: cell-based; details: Ca-Ski, 72 h after treatment, read-out: Drug concentration (IC50) at which 50% cancer cells survived
# [23] = test system: highly metastatic Lewis lung cancer cell lines; assay: MTT growth inhibition, LLC cells; format: cell-based, mouse; details: Mus musculus, Lewis lung carcinoma, 72 h after treatment, read-out: Drug concentration (IC50) at which 50% cancer cells survived
# Excerpt: as §1, §2, §3, §4, §5, §6, §7, §8, §9, §10
# [24] = test system: human neuroma cells D54; assay: MTT growth inhibition, D54 cells; format: cell-based; details: Homo sapiens, 72 h after treatment, read-out: Drug concentration (IC50) at which 50% cancer cells survived
# Excerpt: as §1, §2, §3, §4, §5, §6, §7, §8, §9, §10
# [25] = test system: human prostate cancer cells PC-3; assay: MTT growth inhibition, PC-3 cells; format: cell-based; details: 72 h after treatment, read-out: Drug concentration (IC50) at which 50% cancer cells survived
# Excerpt: as §1, §2, §3, §4, §5, §6, §7, §8, §9, §10
smiles,measurement,setting,value
"CC[C@]1(O)C[C@H]2CN(CCc3c([nH]c4ccccc34)[C@@](C(=O)OC)(c3cc4c(cc3OC)N(C=O)[C@H]3[C@@](O)(C(=O)OC)[C@H](OC(C)=O)[C@]5(CC)C=CCN6CC[C@]43[C@@H]65)C2)C1 [Vincristine, reference compound]",IC50,[1],37 µM
same,EC50,[2],> 70 µM
same,EC50,[3],> 70 µM
same,IC50,[4]; A549 cells,> 70 µM
same,IC50,[4]; Hela cells,> 70 µM
same,IC50,[4]; MCF7 cells,> 70 µM
same,IC50,[4]; MDA-MB231 cells,> 70 µM
same,IC50,[4]; PANC-1 cells,> 70 µM
same,IC50,[4]; SMMC7721 cells,> 70 µM
same,IC50,[5],220 µM
same,IC50,[6],78 ± 30 µM
same,EC50,[7],> 70 µM
same,IC50,[8],130 µM
same,EC50,[9],> 70 µM
O=C(O)c1cc2ccccc2oc1=O [Compound IIIa],IC50,[1],> 700 µM
same,IC50,[10],> 700 µM
same,IC50,[11],> 700 µM
same,IC50,[12],> 700 µM
same,IC50,[13],> 700 µM
same,IC50,[14],> 700 µM
same,IC50,[15],> 700 µM
same,IC50,[16],> 700 µM
same,IC50,[17],> 700 µM
same,IC50,[18],> 700 µM
same,IC50,[19],> 700 µM
same,IC50,[20],> 700 µM
same,IC50,[21],> 700 µM
same,IC50,[5],> 700 µM
same,IC50,[22],> 700 µM
same,IC50,[6],> 500 µM
same,IC50,[23],> 700 µM
same,IC50,[24],> 700 µM
same,IC50,[8],> 700 µM
same,IC50,[25],> 500 µM
